# According to patent publication US12077503B2, “Substituted cyclic amides and their use as herbicides” (FMC CORPORATION, priority 2015, dated 2024):
# Experiments:
# Format in all cases: in vivo
# [1] = system: Kochia (Kochia scoparia); experiment: Test A postemergence; conditions: Bassia scoparia, post-emergence, 240 h, Postemergence, read-out: Kochia plant response rating (0 to 100 scale); for pest or weed control at 125 g/ha: 125 g ai/ha, visual rating about 10 d after treatment; for pest or weed control at 31 g/ha: 31 g ai/ha, 0 is no effect, 100 is complete control
# Summary of the method: (§1)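 Seeds sprayed preemergence with a directed soil spray, or plants at 2 to 10 cm height and one- to two-leaf stage sprayed postemergence, with test chemicals in a non-phytotoxic solvent mixture containing surfactant, in loam soil–sand blend. Injury rated visually against untreated controls after about 10 d in greenhouse, 0 (no effect) to 100 (complete control).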
# [2] = system: wheat (Triticum aestivum); experiment: Test A postemergence; conditions: Triticum aestivum, post-emergence, 240 h, Postemergence, read-out: Wheat plant response rating (0 to 100 scale); for plant injury at 125 g/ha: 125 g ai/ha, visual rating about 10 d after treatment; for plant injury at 31 g/ha: 31 g ai/ha, 0 is no effect, 100 is complete control
# Summary of the method: as §1
# [3] = system: corn (Zea mays); experiment: Test A postemergence; conditions: Zea mays, post-emergence, 240 h, Postemergence, read-out: Corn plant response rating (0 to 100 scale); for plant injury at 125 g/ha: 125 g ai/ha, visual rating about 10 d after treatment; for plant injury at 31 g/ha: 31 g ai/ha, 0 is no effect, 100 is complete control
# Summary of the method: as §1
# [4] = system: giant foxtail (Setaria faberii); experiment: Test A postemergence; conditions: Setaria faberi, post-emergence, 240 h, Postemergence, read-out: Foxtail, Giant plant response rating (0 to 100 scale); for pest or weed control at 125 g/ha: 125 g ai/ha, visual rating about 10 d after treatment; for pest or weed control at 31 g/ha: 31 g ai/ha, 0 is no effect, 100 is complete control
# Summary of the method: as §1
# [5] = system: pigweed (Amaranthus retroflexus); experiment: Test A postemergence; conditions: Amaranthus retroflexus, post-emergence, 240 h, Postemergence, read-out: Pigweed plant response rating (0 to 100 scale); for pest or weed control at 125 g/ha: 125 g ai/ha, visual rating about 10 d after treatment; for pest or weed control at 31 g/ha: 31 g ai/ha, 0 is no effect, 100 is complete control
# Summary of the method: as §1
# [6] = system: Galium (catchweed bedstraw, Galium aparine); experiment: Test A postemergence; conditions: Galium, post-emergence, 240 h, Postemergence, read-out: Galium plant response rating (0 to 100 scale); for pest or weed control at 125 g/ha: 125 g ai/ha, visual rating about 10 d after treatment; for pest or weed control at 31 g/ha: 31 g ai/ha, 0 is no effect, 100 is complete control
# Summary of the method: as §1
# [7] = system: ragweed (common ragweed, Ambrosia elatior); experiment: Test A postemergence; conditions: Ambrosia artemisiifolia, post-emergence, 240 h, Postemergence, read-out: Ragweed plant response rating (0 to 100 scale); for pest or weed control at 125 g/ha: 125 g ai/ha, visual rating about 10 d after treatment; for pest or weed control at 31 g/ha: 31 g ai/ha, 0 is no effect, 100 is complete control
# Summary of the method: as §1
# [8] = system: barnyardgrass (Echinochloa crus-galli); experiment: Test A postemergence; conditions: Echinochloa crus-galli, post-emergence, 240 h, Postemergence; for pest or weed control at 125 g/ha: 125 g ai/ha, visual rating about 10 d after treatment, read-out: Barnyardgrass plant response rating (0 to 100 scale, 0 no effect, 100 complete control); for pest or weed control at 31 g/ha: 31 g ai/ha, 0 is no effect, 100 is complete control, read-out: Barnyardgrass plant response rating (0 to 100 scale)
# Summary of the method: as §1
# [9] = system: ryegrass, Italian (Italian ryegrass, Lolium multiflorum); experiment: Test A postemergence; conditions: Lolium multiflorum, post-emergence, 240 h, Postemergence, read-out: Ryegrass, Italian plant response rating (0 to 100 scale); for pest or weed control at 125 g/ha: 125 g ai/ha, visual rating about 10 d after treatment; for pest or weed control at 31 g/ha: 31 g ai/ha, 0 is no effect, 100 is complete control
# Summary of the method: as §1
# [10] = system: blackgrass (Alopecurus myosuroides); experiment: Test A postemergence; conditions: Alopecurus myosuroides, post-emergence, 240 h, Postemergence, read-out: Blackgrass plant response rating (0 to 100 scale); for pest or weed control at 125 g/ha: 125 g ai/ha, visual rating about 10 d after treatment; for pest or weed control at 31 g/ha: 31 g ai/ha, 0 is no effect, 100 is complete control
# Summary of the method: as §1
# [11] = system: Kochia (Kochia scoparia); experiment: Test A preemergence; conditions: Bassia scoparia, pre-emergence, 240 h, 0 to 100 scale where 0 is no effect and 100 is complete control, read-out: Kochia plant response rating; for pest or weed control at 31 g/ha: 31 g ai/ha, Preemergence; for pest or weed control at 125 g/ha: 125 g ai/ha, preemergence, visual injury rating, approximately 10 d
# Summary of the method: as §1
# [12] = system: giant foxtail (Setaria faberii); experiment: Test A preemergence; conditions: Setaria faberi, pre-emergence, 240 h, 0 to 100 scale where 0 is no effect and 100 is complete control, read-out: Foxtail, Giant plant response rating; for pest or weed control at 31 g/ha: 31 g ai/ha, Preemergence; for pest or weed control at 125 g/ha: 125 g ai/ha, preemergence, visual injury rating, approximately 10 d
# Summary of the method: as §1
# [13] = system: pigweed (Amaranthus retroflexus); experiment: Test A preemergence; conditions: Amaranthus retroflexus, pre-emergence, 240 h, 0 to 100 scale where 0 is no effect and 100 is complete control, read-out: Pigweed plant response rating; for pest or weed control at 31 g/ha: 31 g ai/ha, Preemergence; for pest or weed control at 125 g/ha: 125 g ai/ha, preemergence, visual injury rating, approximately 10 d
# [14] = system: ragweed (common ragweed, Ambrosia elatior); experiment: Test A preemergence; conditions: Ambrosia artemisiifolia, pre-emergence, 240 h, 0 to 100 scale where 0 is no effect and 100 is complete control, read-out: Ragweed plant response rating; for pest or weed control at 31 g/ha: 31 g ai/ha, Preemergence; for pest or weed control at 125 g/ha: 125 g ai/ha, preemergence, visual injury rating, approximately 10 d
# Summary of the method: as §1
# [15] = system: barnyardgrass (Echinochloa crus-galli); experiment: Test A preemergence; conditions: Echinochloa crus-galli, pre-emergence, 240 h, 0 to 100 scale where 0 is no effect and 100 is complete control, read-out: Barnyardgrass plant response rating; for pest or weed control at 31 g/ha: 31 g ai/ha, Preemergence; for pest or weed control at 125 g/ha: 125 g ai/ha, preemergence, visual injury rating, approximately 10 d
# Summary of the method: as §1
# [16] = system: ryegrass, Italian (Italian ryegrass, Lolium multiflorum); experiment: Test A preemergence; conditions: Lolium multiflorum, pre-emergence, 240 h, 0 to 100 scale where 0 is no effect and 100 is complete control, read-out: Ryegrass, Italian plant response rating; for pest or weed control at 31 g/ha: 31 g ai/ha, Preemergence; for pest or weed control at 125 g/ha: 125 g ai/ha, preemergence, visual injury rating, approximately 10 d
# Summary of the method: as §1
# [17] = system: sedge, umbrella (small-flower umbrella sedge, Cyperus difformis); experiment: Test B flooded paddy test; conditions: Cyperus difformis, 250 g ai/ha, Flood; 0 to 100 scale where 0 is no effect and 100 is complete control; read-out: Sedge, Umbrella plant response rating
# Summary of the method: (§2)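 Greenhouse paddy pots with 2-leaf stage plants received compound by direct addition to floodwater 3 cm deep, kept at that level. Scored visually at 13–15 d versus controls (0 no effect; 100 complete control).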
# [18] = system: rice (Oryra sativa); experiment: Test B flooded paddy test; conditions: Oryza sativa, 250 g ai/ha, Flood; 0 to 100 scale where 0 is no effect and 100 is complete control; read-out: Rice plant response rating
# Summary of the method: as §2
# [19] = system: barnyardgrass (Echinochloa crus-galli); experiment: Test B flooded paddy test; conditions: Echinochloa crus-galli, 250 g ai/ha, Flood; 0 to 100 scale where 0 is no effect and 100 is complete control; read-out: Barnyardgrass plant response rating
# Summary of the method: as §2
# [20] = system: ducksalad (Heteranthera limosa); experiment: Test B flooded paddy test; conditions: Heteranthera limosa, 250 g ai/ha, Flood; 0 to 100 scale where 0 is no effect and 100 is complete control; read-out: Ducksalad plant response rating
# Summary of the method: as §2
Structure (SMILES),pest or weed control at 125 g/ha [1],pest or weed control at 31 g/ha [1],plant injury at 125 g/ha [2],plant injury at 31 g/ha [2],plant injury at 125 g/ha [3],plant injury at 31 g/ha [3],pest or weed control at 125 g/ha [4],pest or weed control at 31 g/ha [4],pest or weed control at 125 g/ha [5],pest or weed control at 31 g/ha [5],pest or weed control at 125 g/ha [6],pest or weed control at 31 g/ha [6],pest or weed control at 125 g/ha [7],pest or weed control at 31 g/ha [7],pest or weed control at 125 g/ha [8],pest or weed control at 31 g/ha [8],pest or weed control at 125 g/ha [9],pest or weed control at 31 g/ha [9],pest or weed control at 125 g/ha [10],pest or weed control at 31 g/ha [10],further results
CN1C[C@H](c2csc3c2CCCC3)[C@@H](C(=O)Nc2ccccc2F)C1=O [Compound 1275],0%,0%,0%,0%,0%,0%,70%,20%,0%,0%,0%,0%,0%,0%,90%,30%,0%,0%,0%,0%,pest or weed control at 31 g/ha [11]: 0%; pest or weed control at 125 g/ha [11]: 20%; pest or weed control at 31 g/ha [12]: 90%; pest or weed control at 125 g/ha [12]: 100%; pest or weed control at 31 g/ha [13]: 0%; pest or weed control at 125 g/ha [13]: 0%; pest or weed control at 31 g/ha [14]: 0%; pest or weed control at 125 g/ha [14]: 20%; pest or weed control at 31 g/ha [15]: 70%; pest or weed control at 125 g/ha [15]: 100%; pest or weed control at 31 g/ha [16]: 0%; pest or weed control at 125 g/ha [16]: 0%; pest or weed control at 250 g/ha [17]: 0%; pest or weed control at 250 g/ha [18]: 20%; pest or weed control at 250 g/ha [19]: 75%; pest or weed control at 250 g/ha [20]: 90%
CN1C[C@H](c2csc3c2CCC3)[C@@H](C(=O)Nc2cccc(F)c2F)C1=O [Compound 1278],20%,0%,0%,0%,0%,0%,80%,50%,0%,0%,0%,0%,30%,0%,100%,70%,0%,0%,0%,0%,pest or weed control at 31 g/ha [11]: 30%; pest or weed control at 125 g/ha [11]: 30%; pest or weed control at 31 g/ha [12]: 100%; pest or weed control at 125 g/ha [12]: 100%; pest or weed control at 31 g/ha [13]: 0%; pest or weed control at 125 g/ha [13]: 90%; pest or weed control at 31 g/ha [14]: 20%; pest or weed control at 125 g/ha [14]: 100%; pest or weed control at 31 g/ha [15]: 80%; pest or weed control at 125 g/ha [15]: 100%; pest or weed control at 31 g/ha [16]: 0%; pest or weed control at 125 g/ha [16]: 30%; pest or weed control at 250 g/ha [17]: 0%; pest or weed control at 250 g/ha [18]: 35%; pest or weed control at 250 g/ha [19]: 60%; pest or weed control at 250 g/ha [20]: 90%
